Data: patent US9802901B2, “Antibacterial 2H-indazole derivatives” (priority 2013, dated 2017)
Converted amounts (≈) assume the structure as drawn.

Tests used:
Test in all cases: Bacterial growth minimal inhibitory concentration (broth microdilution, CLSI M7-A7)
K. pneumoniae A-651 = type: cell-based, Klebsiella pneumoniae; conditions: cation-adjusted Mueller-Hinton Broth, microdilution, multiply-resistant (quinolone-resistant) strain; for MIC: Klebsiella pneumoniae, A651, read-out: MIC for K. Pneumoniae A-651
In short: (§1)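 Broth microdilution in cation-adjusted Mueller-Hinton Broth per CLSI M7-A7; MICs reported in mg/L. K. pneumoniae A-651 and A. baumannii T6474 are multiply resistant, quinolone-resistant strains; E. coli ATCC25922 and P. aeruginosa ATCC27853 are quinolone-sensitive.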

E. coli ATCC25922 = type: cell-based, Escherichia coli; conditions: cation-adjusted Mueller-Hinton Broth, microdilution, quinolone-sensitive strain; for MIC: Escherichia coli, ATCC25922, read-out: MIC for E. coli ATCC25922
In short: as §1

P. aeruginosa ATCC27853 = type: cell-based, Pseudomonas aeruginosa; conditions: cation-adjusted Mueller-Hinton Broth, microdilution, quinolone-sensitive strain; for MIC: Pseudomonas aeruginosa, ATCC27853, read-out: MIC for P. aeruginosa ATCC27853
In short: as §1

[1] = tested on: Acinetobacter baumannii T6474; type: cell-based; conditions: cation-adjusted Mueller-Hinton Broth, microdilution, multiply-resistant (quinolone-resistant) strain; for MIC: Acinetobacter baumannii, T6474, read-out: MIC for A. Baumannii T6474
In short: as §1

| Compound | MIC (K. pneumoniae A-651) [mg/L] | MIC (E. coli ATCC25922) [mg/L] | MIC (P. aeruginosa ATCC27853) [mg/L] | MIC [1] [mg/L] | MIC for K. Pneumoniae A-651 (K. pneumoniae A-651) [mg/L] | MIC for E. coli ATCC25922 (E. coli ATCC25922) [mg/L] | MIC for P. aeruginosa ATCC27853 (P. aeruginosa ATCC27853) [mg/L] | MIC for A. Baumannii T6474 [1] [mg/L] |
| --- | --- | --- | --- | --- | --- | --- | --- | --- |
| CC(CCn1cc2cc(-c3ccc(OCCN4CCOCC4)cc3)ccc2n1)(C(=O)NO)S(C)(=O)=O.O=CO (racemic) [RE2, (RS)—N-hydroxy-2-methylsulfonyl-2-methyl-4-{5-[4-(2-morpholin-4-yl-ethoxy)-phenyl]-indazol-2-yl}-butanamide formic acid salt] | 1 | 1 | 4 | 4 |  |  |  |  |
| C[C@@](CCn1cc2cc(C#CC#CC3CN(C(=O)CO)C3)ccc2n1)(C(=O)NO)S(C)(=O)=O [Example 81, (R)—N-hydroxy-4-(5-((1-(2-hydroxyacetyl)azetidin-3-yl)buta-1,3-diyn-1-yl)-2H-indazol-2-yl)-2-methyl-2-(methylsulfonyl)butanamide] | 1 (≈ 2.12 µM) | 0.5 (≈ 1.06 µM) | 1 (≈ 2.12 µM) | 4 (≈ 8.47 µM) |  |  |  |  |
| C[C@@](CCn1cc2cc(C#CC#CCC3(O)CC(CO)C3)ccc2n1)(C(=O)NO)S(C)(=O)=O (stereo partly drawn) [Example 66] |  |  |  |  | 4 | 1 | 2 | >32 |
| C[C@@](CCn1cc2cc(C#CC#CC3(O)CSC3)ccc2n1)(C(=O)NO)S(C)(=O)=O [Example 13, (R)—N-hydroxy-4-(5-((3-hydroxythietan-3-yl)buta-1,3-diyn-1-yl)-2H-indazol-2-yl)-2-methyl-2-(methylsulfonyl)butanamide] | 0.25 (≈ 0.559 µM) | 0.125 (≈ 0.279 µM) | 0.5 (≈ 1.12 µM) | 32 (≈ 71.5 µM) |  |  |  |  |
| (R)-4-(5-(5-amino-5-methylhexa-1,3-diyn-1-yl)-2H-indazol-2-yl)-N-hydroxy-2-methyl-2-(methylsulfonyl)butanamide [Example 24] |  |  |  |  | 1 | 0.5 | 0.5 | >32 |
| C[C@@](CCn1cc2cc(C#CC#CC3(CO)CCC3)ccc2n1)(C(=O)NO)S(C)(=O)=O [Example 73, (R)—N-hydroxy-4-(5-((1-(hydroxymethyl)cyclobutyl)buta-1,3-diyn-1-yl)-2H-indazol-2-yl)-2-methyl-2-(methylsulfonyl)butanamide] | 0.25 (≈ 0.564 µM) | 0.125 (≈ 0.282 µM) | 1 (≈ 2.25 µM) | 32 (≈ 72.1 µM) |  |  |  |  |
| C[C@@](CCn1cc2cc(C#CC#CC3(CO)COC3)ccc2n1)(C(=O)NO)S(C)(=O)=O [Example 68, (R)—N-hydroxy-4-(5-((3-(hydroxymethyl)oxetan-3-yl)buta-1,3-diyn-1-yl)-2H-indazol-2-yl)-2-methyl-2-(methylsulfonyl)butanamide] | 1 (≈ 2.24 µM) | 1 (≈ 2.24 µM) | 1 (≈ 2.24 µM) | > 32 |  |  |  |  |
| C[C@@](CCn1cc2cc(C#CC#CC3CCN(C(=O)CO)CC3)ccc2n1)(C(=O)NO)S(C)(=O)=O [Example 78] |  |  |  |  | 2 | 0.5 | 1 | 4 |
| C[C@@](CCn1cc2cc(-c3ccc(OCCO)cc3F)ccc2n1)(C(=O)NO)S(C)(=O)=O [Example 50, (R)-4-(5-(2-fluoro-4-(2-hydroxyethoxy)phenyl)-2H-indazol-2-yl)-N-hydroxy-2-methyl-2-(methylsulfonyl)butanamide] | 1 (≈ 2.15 µM) | 0.5 (≈ 1.07 µM) | 2 (≈ 4.3 µM) | 2 (≈ 4.3 µM) |  |  |  |  |
| C[C@@](CCn1cc2cc(C#CC#CC3CCNCC3)ccc2n1)(C(=O)NO)S(C)(=O)=O [Example 76, (R)—N-hydroxy-2-methyl-2-(methylsulfonyl)-4-(5-(piperidin-4-ylbuta-1,3-diyn-1-yl)-2H-indazol-2-yl)butanamide] | 32 (≈ 72.3 µM) | 8 (≈ 18.1 µM) | 2 (≈ 4.52 µM) | > 32 |  |  |  |  |
| C[C@@](CCn1cc2cc(C#CC#CCC3(O)COC3)ccc2n1)(C(=O)NO)S(C)(=O)=O [Example 80, (R)—N-hydroxy-4-(5-(5-(3-hydroxyoxetan-3-yl)penta-1,3-diyn-1-yl)-2H-indazol-2-yl)-2-methyl-2-(methylsulfonyl)butanamide] | 1 (≈ 2.24 µM) | 0.5 (≈ 1.12 µM) | 1 (≈ 2.24 µM) | 32 (≈ 71.8 µM) |  |  |  |  |
| C[C@@](CCn1cc2cc(C#CC#C[C@@H]3C[C@H]3CN)ccc2n1)(C(=O)NO)S(C)(=O)=O [Example 72, (R)-4-(5-(((1R,2R)-2-(aminomethyl)cyclopropyl)buta-1,3-diyn-1-yl)-2H-indazol-2-yl)-N-hydroxy-2-methyl-2-(methylsulfonyl)butanamide] | 4 (≈ 9.33 µM) | 2 (≈ 4.67 µM) | 2 (≈ 4.67 µM) | > 8 |  |  |  |  |
| C[C@@](CCn1cc2cc(-c3ccc(OC[C@H](O)CO)cc3F)ccc2n1)(C(=O)NO)S(C)(=O)=O [Example 58, (R)-4-(5-(4-((R)-2,3-dihydroxypropoxy)-2-fluorophenyl)-2H-indazol-2-yl)-N-hydroxy-2-methyl-2-(methylsulfonyl)butanamide] | 4 (≈ 8.07 µM) | 2 (≈ 4.04 µM) | 2 (≈ 4.04 µM) | 8 (≈ 16.1 µM) |  |  |  |  |
| C[C@@](CCn1cc2cc(C#CC#CC3CCC(NC(=O)CN)C3)ccc2n1)(C(=O)NO)S(C)(=O)=O (stereo partly drawn) [Example 70, (R)-4-(5-((3-(2-aminoacetamido)cyclopentyl)buta-1,3-diyn-1-yl)-2H-indazol-2-yl)-N-hydroxy-2-methyl-2-(methylsulfonyl)butanamide] | 1 (≈ 2 µM) | 1 (≈ 2 µM) | 2 (≈ 4 µM) | > 32 |  |  |  |  |
| CC#CCOc1ccc2nn(CCC(C)(C(=O)NO)S(C)(=O)=O)cc2c1 (racemic) [RE4, (RS)-4-(5-but-2-ynyloxy-indazol-2-yl)-N-hydroxy-2-methylsulfonyl-2-methyl-butanamide] | 8 (≈ 21.1 µM) | 4 (≈ 10.5 µM) | 8 (≈ 21.1 µM) | 32 (≈ 84.3 µM) |  |  |  |  |
| C[C@@](CCn1cc2cc(C#Cc3ccc(CO)c(F)c3)ccc2n1)(C(=O)NO)S(C)(=O)=O [Example 22, (R)-4-[5-(3-fluoro-4-hydroxymethyl-phenylethynyl)-indazol-2-yl]-N-hydroxy-2-methylsulfonyl-2-methyl-butanamide] | 0.5 (≈ 1.09 µM) | 0.125 (≈ 0.272 µM) | 2 (≈ 4.35 µM) | 1 (≈ 2.18 µM) |  |  |  |  |
| C[C@@](CCn1cc2cc(C#CC#C[C@@H]3C[C@@H](O)[C@@H](O)C3)ccc2n1)(C(=O)NO)S(C)(=O)=O [Example 64, (R)-4-(5-(((1S,3R,4S)-3,4-dihydroxycyclopentyl)buta-1,3-diyn-1-yl)-2H-indazol-2-yl)-N-hydroxy-2-methyl-2-(methylsulfonyl)butanamide] |  |  |  |  | 0.5 | 0.125 | 0.25 | 4 |
| C[C@@]1(C#CC#Cc2ccc3nn(CC[C@](C)(C(=O)NO)S(C)(=O)=O)cc3c2)C[C@H]1CO [Example 67, (R)—N-hydroxy-4-(5-(((1R,2R)-2-(hydroxymethyl)-1-methylcyclopropyl)buta-1,3-diyn-1-yl)-2H-indazol-2-yl)-2-methyl-2-(methylsulfonyl)butanamide] | 0.125 (≈ 0.282 µM) | 0.125 (≈ 0.282 µM) | 0.25 (≈ 0.564 µM) | 32 (≈ 72.1 µM) |  |  |  |  |
| C[C@@](CCn1cc2cc(-c3ccc(C#C[C@H]4C[C@@H]4CO)cc3)ccc2n1)(C(=O)NO)S(C)(=O)=O (relative stereo) [Example 60, (R)—N-hydroxy-4-(5-(4-(((1S*,2S*)-2-(hydroxymethyl)cyclopropyl)ethynyl)phenyl)-2H-indazol-2-yl)-2-methyl-2-(methylsulfonyl)butanamide] | 0.125 (≈ 0.26 µM) | ≤ 0.063 | 0.5 (≈ 1.04 µM) | ≤ 0.063 |  |  |  |  |
| C[C@@](CCn1cc2cc(C#CC#CC3(O)COC3)c(F)cc2n1)(C(=O)NO)S(C)(=O)=O [Example 31, (R)-4-{6-fluoro-5-[4-(3-hydroxy-oxetan-3-yl)-buta-1,3-diynyl]-indazol-2-yl}-N-hydroxy-2-methylsulfonyl-2-methyl-butanamide] | 1 (≈ 2.22 µM) | 1 (≈ 2.22 µM) | 2 (≈ 4.45 µM) | > 32 |  |  |  |  |
| CN(C)C1(c2ccc(C#Cc3ccc4nn(CC[C@](C)(C(=O)NO)S(C)(=O)=O)cc4c3)cc2)COC1.Cc1ccc(S(=O)(=O)O)cc1 [Example 30, (R)-4-{5-[4-(3-dimethylamino-oxetan-3-yl)-phenylethynyl]-indazol-2-yl}-N-hydroxy-2-methylsulfonyl-2-methyl-butanamide toluene-4-sulfonic acid salt] | 2 | 1 | 4 | 2 |  |  |  |  |
| C[C@@](CCn1cc2cc(C#CC#C[C@@H]3C[C@H]3CO)ccc2n1)(C(=O)NO)S(C)(=O)=O.O=CO [Example 37] |  |  |  |  | 0.063 | 0.063 | 0.25 | 2 |
| C[C@@](CCn1cc2cc(C#Cc3ccc([C@H](O)CO)cc3)ccc2n1)(C(=O)NO)S(C)(=O)=O [Example 51, (R)-4-(5-((4-((S)-1,2-dihydroxyethyl)phenyl)ethynyl)-2H-indazol-2-yl)-N-hydroxy-2-methyl-2-(methylsulfonyl)butanamide] | 0.5 (≈ 1.06 µM) | 1 (≈ 2.12 µM) | 0.5 (≈ 1.06 µM) | 1 (≈ 2.12 µM) |  |  |  |  |
| C[C@@](CCn1cc2cc(C#CC#CC3CCN(C(=O)CN)CC3)ccc2n1)(C(=O)NO)S(C)(=O)=O.O=CO [Example 83, (R)-4-(5-((1-glycylpiperidin-4-yl)buta-1,3-diyn-1-yl)-2H-indazol-2-yl)-N-hydroxy-2-methyl-2-(methylsulfonyl)butanamide formate] | 8 | 2 | 4 | 32 |  |  |  |  |
